The text below walks through data of patent publication US20250170101A1, “MONOACYLGLYCEROL LIPASE INHIBITORS AND USE THEREOF FOR THE TREATMENT AND MANAGEMENT OF PAIN AND RELATED CONDITIONS” (Psy Therapeutics, Inc., priority 2021, published 2025).

pIC50: −log10 of the molar value.

The first assay has as its target T1, human recombinant FAAH (Homo sapiens, UniProt O00519).
T1 construct: purchased Cayman kit Item No. 10005196; FAAH enzyme 700302
T1 sequence (O00519 1-579): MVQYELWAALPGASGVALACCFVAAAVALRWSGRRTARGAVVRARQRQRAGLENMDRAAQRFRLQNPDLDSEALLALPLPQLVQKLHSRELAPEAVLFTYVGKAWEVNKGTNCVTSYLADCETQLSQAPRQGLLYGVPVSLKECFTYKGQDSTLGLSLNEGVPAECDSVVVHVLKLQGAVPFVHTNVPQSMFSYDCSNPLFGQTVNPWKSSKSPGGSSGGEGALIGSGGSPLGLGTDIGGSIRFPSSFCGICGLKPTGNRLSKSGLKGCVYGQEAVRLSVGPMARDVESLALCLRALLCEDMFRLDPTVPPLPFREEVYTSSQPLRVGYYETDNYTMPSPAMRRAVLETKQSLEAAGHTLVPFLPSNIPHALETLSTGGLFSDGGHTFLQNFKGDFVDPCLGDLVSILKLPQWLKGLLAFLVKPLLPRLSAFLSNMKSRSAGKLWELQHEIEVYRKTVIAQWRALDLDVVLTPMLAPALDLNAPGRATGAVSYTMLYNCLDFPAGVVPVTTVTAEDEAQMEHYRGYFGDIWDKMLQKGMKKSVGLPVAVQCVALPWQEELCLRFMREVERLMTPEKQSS
The assay can be described thus: FAAH counter screen (Cayman FAAH Inhibitor Screening Assay Kit), Example 21. The assay is classed as biochemical. The following applies: Method A: starting concentration of 100 μM. The protocol:
Comparative compound potency at FAAH can be obtained with the following assay.
MAGL inhibitor compounds were also counter-screened for FAAH inhibition potency using the following assay. Assessment of FAAH inhibition was performed using Fatty Acid Amide Hydrolase Inhibitor Screening Assay Kit (Cayman Item No. 10005196) following manufacture's instruction with some modifications. The kit utilizes human recombinant FAAH and the fluorescent substrate, AMC Arachidonoyl amide (AAMCA). 5 μL of assay buffer (125 mM Tris, pH 9.0, 1 mM EDTA, i.e. ethylenediaminetetraacetic acid) was added to a 384-well black plate (Corning, 3573). Test compounds and control inhibitor JZL-195 (Cayman Chemical, 13668) were tested in 10-concentration IC50 mode with 3-fold serial dilution at a starting concentration of 100 μM and 10 μM, respectively. 300 nL or 30 nL of test compounds were delivered into a 384-well black plate (Corning, 3573) using a Labcyte Echo, followed by addition of 15 μL of FAAH enzyme (Cayman, 700302) in assay buffer. After a 5-minute pre-incubation at room temperature, 10 μL of AAMCA was added in assay buffer to start the reaction. Final concentration of FAAH enzyme is not specified and AAMCA substrate was used at the 20 uM. After these dilutions, the final concentration of the test compounds ranged from 100 μM to 5.08 nM or 10 μM down to 0.508 nM. The reaction was allowed to progress for 60 minutes, while the plate was read on an Envision plate reader at an Ex/Em of 350/460 nm with readings every minute. The data was analyzed in Microsoft Excel, using the slope between 30 and 59 minutes. The average of the no-enzyme wells (background) was subtracted from the data. The background-subtracted slope data was converted to % activity using the average of wells with enzyme and DMSO vehicle. IC50 values were calculated using GraphPad software (Sigmoidal dose response, variable slope equation).
Compounds listed in Table D2 were tested in the FAAH Counterscreen of Example 21
For orientation: Counterscreens check selectivity or assay interference.
A word on the pIC50: it is the IC50 on a negative log10 scale, so that one unit is a factor of ten. Regarding `O=C(Nc1cccnc1)N1CCC(Cc2cccc(Oc3ccc(C(F)(F)F)cn3)c2)CC1` [reference compound], the pIC50 is 7.85.

Consider `Cc1cc(C2CC3(C2)CN(C(=O)c2ccccc2F)C3)n(-c2ccccc2C)n1` [Compound 122, (2-fluorophenyl)(6-(3-methyl-1-(o-tolyl)-1H-pyrazol-5-yl)-2-azaspiro[3.3]heptan-2-yl)methanone], for which the pIC50 is below 5.00.

Take `COc1ccc(F)c(C(=O)N2CC3(CC(c4cc(C)nn4-c4ccccc4C)C3)C2)c1` [Compound 123, (2-fluoro-5-methoxyphenyl)(6-(3-methyl-1-(o-tolyl)-1H-pyrazol-5-y1)-2-azaspiro[3.3]heptan-2-yl)methanone]: the pIC50 was below 5.00.

As to `O=C(Oc1ccc([N+](=O)[O-])cc1)N1CCN(Cc2cccc(Oc3ccccc3)c2)CC1` [reference compound], the pIC50 was 6.34.

With `Cc1ccccc1-n1nc(C2CC3(C2)CN(C(=O)c2cc(O)ccc2F)C3)cc1C` [Compound 117], the pIC50 was below 5.00.

The target in a further assay is T2, MAGL enzyme (Homo sapiens, UniProt Q99685).
T2 sequence (Q99685 1-303): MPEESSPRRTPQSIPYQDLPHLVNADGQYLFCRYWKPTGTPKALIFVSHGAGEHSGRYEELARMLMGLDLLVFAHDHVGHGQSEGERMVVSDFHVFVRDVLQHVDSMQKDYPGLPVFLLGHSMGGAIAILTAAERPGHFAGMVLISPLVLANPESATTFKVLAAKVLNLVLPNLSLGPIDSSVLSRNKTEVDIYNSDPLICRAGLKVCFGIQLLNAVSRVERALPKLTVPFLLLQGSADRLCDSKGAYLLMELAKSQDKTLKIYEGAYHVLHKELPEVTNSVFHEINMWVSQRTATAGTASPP
In words: MAGL reversible inhibition assay (washout), Example 22. Also on record: % MAGL activity returning after washout: concentration or dose not given beside the values. Particulars: pre-washout compound concentration 1 μM. It counts as biochemical. The protocol:
The reversible mechanism of MAGL inhibition of a test compound of Formula (I) can be determined. Flag-tagged MAGL enzyme will be immobilized on anti-Flag beads. Immobilized enzyme will be incubated+/−inhibitor at a dose that produces complete inhibition. Colorimetric substrate (4-NPA) will be added and the reaction monitored on a plate reader for 30 minutes to verify complete inhibition. Immobilized enzyme will then be washed thoroughly to remove the inhibitor, and fresh substrate will be added. The reaction will be monitored for an additional 30 minutes; returning enzymatic activity will indicate reversibility of inhibition. […]
For some test compounds, % activity returning after washout may be less than 100%/if complete compound unbinding takes longer than 30 minutes.
With `Cc1cnn(C2CC3(C2)CN(C(=O)c2cc(O)ccc2F)C3)c1-c1cc(F)ccc1Cl` (single isomer, unassigned) [Compound 519, {6-[5-(2-chloro-5-fluorophenyl)-4-methyl-1-pyrazolyl]-2-aza-2-spiro[3.3]heptyl}(2-fluoro-5-hydroxyphenyl)methanone], the “degree to which MAGL enzymatic activity returned following washout of test compounds” value is given as 155.

The assay is the same for the next values; noted with them: relative to control (no inhibitor before washout), immediately following 30 minute washout.
In the case of `Cc1cnn(C2CC3(C2)CN(C(=O)c2cc(O)ccc2F)C3)c1-c1cc(F)ccc1Cl` (single isomer, unassigned) [Compound 519, {6-[5-(2-chloro-5-fluorophenyl)-4-methyl-1-pyrazolyl]-2-aza-2-spiro[3.3]heptyl}(2-fluoro-5-hydroxyphenyl)methanone], the “% MAGL activity returning after washout” value is above 50%.

The target in a further assay is T3, human MAGL (Homo sapiens, UniProt Q99685).
T3 construct: recombinant MAGL enzyme (aa 2-303 RBC, internal preparation)
T3 sequence (Q99685 2-303): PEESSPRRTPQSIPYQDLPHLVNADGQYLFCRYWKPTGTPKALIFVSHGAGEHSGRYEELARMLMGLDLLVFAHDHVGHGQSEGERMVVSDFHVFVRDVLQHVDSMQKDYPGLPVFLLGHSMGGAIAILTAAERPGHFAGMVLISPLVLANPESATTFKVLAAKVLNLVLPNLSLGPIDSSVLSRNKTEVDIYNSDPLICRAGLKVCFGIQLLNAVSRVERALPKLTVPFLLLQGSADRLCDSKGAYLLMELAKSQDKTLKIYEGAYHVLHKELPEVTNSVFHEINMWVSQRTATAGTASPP
In words: MAGL inhibition potency (IC50) with 4NPA substrate, Example 20, methods of Table C. It counts as biochemical.
Settings: not given
An excerpt:
Cayman's Monoacylglycerol Lipase Inhibitor Screening Assay provides a method for screening human MAGL inhibitors. MAGL hydrolyzes 4-nitrophenylacetate resulting in a yellow product, 4-nitrophenol, with an absorbance of 405-412 nm. The monoacylglycerol lipase inhibitor screening assay kit from Cayman Chemical was used to measure the MAGL potency for the compounds in Table 4 and Table 5. Cayman's Monoacylglycerol Lipase Inhibitor Screening Assay provides a method for screening human MAGL inhibitors. MAGL hydrolyzes 4-nitrophenylacetate resulting in a yellow product, 4-nitrophenol, with an absorbance of 405-412 nm. MAGL Inhibition was measured by the following assay. Monoacylglycerol Lipase (MAGL) inhibition was measured using recombinant MAGL enzyme (aa 2-303 RBC, internal preparation) and the substrate 4-Nitrophenyl acetate (4NPA) (Sigma-Aldrich, N8130). Hydrolysis of the substrate in the presence of the enzyme was measured by absorbance at 405 nm. 10 μL of assay buffer (10 mM Tris pH 7.5, 1 mM EDTA, 0.9% DMSO) was added to a black 384-well non-binding plate with clear bottom (Greiner, 781906) for each reaction. […] DMSO control wells were included for reference. A 10.8 nM (1.8×) MAGL mix in assay buffer was prepared, with 25 μL added to each reaction well, for a final assay concentration of 6 nM. No enzyme wells received 25 μL of buffer. Plate was incubated at room temperature for 30 minutes. 35 mM solution of 4NPA in methanol was prepared daily. A 4.5×4NPA substrate solution was prepared in assay buffer and 10 μL was added to each reaction well, for a final assay concentration of 0.25 mM. Plate was spun for 1 minute at 1000 rpm before measuring absorbance using a CLARIOstar plate reader (BMG Labtech). A kinetic reading at 405 nm was done every minute for 30 minutes. Data was analyzed using the linear slope of the reaction progress curve and the average of the no-enzyme wells (background) was subtracted from the data. The background-subtracted slope data was converted to % activity using the average of wells with enzyme and DMSO vehicle. IC50s were calculated using GraphPad software (Sigmoidal dose response, variable slope equation). […] Table 6 is a table of potency measurements of MAGL inhibition measured for other compounds using the Potency Assay of Example 20 above, with the following modifications described in Table C. [table]
In the case of `Cc1cc(C2CC3(C2)CN(Cc2cc(O)ccc2F)C3)n(-c2ccccc2C)n1` [Compound 150, 4-fluoro-3-((6-(3-methyl-1-(o-tolyl)-1H-pyrazol-5-yl)-2-azaspiro [3.3]heptan-2-yl)methyl)phenol], the pIC50 is below 5.00.

The assay is the same for the next values; noted with them: Method 2: MAGL (10 nM) Cayman Chemical Enzyme.
Turning to `COC(c1ccn(C)c1)N1CC2(CC(c3cc(C)nn3-c3ccccc3C)C2)C1` (stereo not shown) [Compound 182], the pIC50 is below 5.00.

On to `COC(c1cccn1C)N1CC2(CC(c3cc(C)nn3-c3ccccc3C)C2)C1` (stereo not shown) [Compound 181], for which the pIC50 was below 5.00.

As for `COc1cc(F)ccc1CN1CC2(CC(c3cc(C)nn3-c3ccccc3C)C2)C1` [Compound 149], the pIC50 is below 5.00.

The assay is the same for the next values; noted with them: Method 4: MAGL (15 nM) Cayman Chemical Enzyme.
The molecule `CCOc1cc(F)ccc1C(=O)N1CC2(CC(C(=O)N(C)c3cccnc3C)C2)C1` [Compound 198] had a pIC50 below 5.00.

The same assay, now with this note: Method 6: Enzyme Conc 6, Reaction Biology (6 nM).
`Cc1ccccc1-c1ccnn1C1CC2(C1)CN(C(=O)c1cc(O)ccc1F)C2` [Compound 405] had a pIC50 below 5.00.

As to `Cc1cn(C2CC3(C2)CN(C(=O)c2cc(O)ccc2F)C3)nc1-c1ccccc1Cl` [Compound 416], the pIC50 is below 5.00.

As to `Cc1ccccc1-c1cc(C)n(C2CC3(C2)CN(C(=O)c2cc(O)ccc2F)C3)n1` [Compound 442], the pIC50 is below 5.00.

Consider `Cc1ccccc1-c1ccn(C2CC3(C2)CN(C(=O)c2cc(O)ccc2F)C3)n1` [Compound 441], for which the pIC50 was below 5.00.

In turn, `Cc1cc(-c2ccccc2C)n(C2CC3(C2)CN(C(=O)c2cc(O)ccc2F)C3)n1` [Compound 406] showed a pIC50 below 5.00.

Turning to `Cc1cnn(C2CC3(C2)CN(C(=O)c2cc(O)ccc2F)C3)c1-c1ccccc1Cl` [Compound 404], the pIC50 is below 5.00.

Staying with this assay, now noted: Method 12: Enzyme Conc 15, Reaction Biology (15 nM).
The molecule `O=C(c1c(F)cccc1OC1CC1)N1CC2(CC(n3ncc(C(F)(F)F)c3-c3ccccc3F)C2)C1` [Compound 521] gave a pIC50 below 5.00.

In turn, `Cc1cn(C2CC3(C2)CN(C(=O)c2cc(O)ccc2C(F)(F)F)C3)nc1-c1ccccc1F` [Compound 495] showed a pIC50 below 5.00.

`Cc1cnn(C2CC3(C2)CN(C(=O)c2cc(O)ccc2C(F)(F)F)C3)c1-c1ccccc1F` [Compound 494]: the pIC50 is below 5.00.

The same assay, now with this note: Method 14: Enzyme Conc "0", Source "0"; Reaction Biology prep, 6 nM.
On to `O=C(c1cc(O)ccc1F)N1CC2(CC(C(=O)N3CCCC3)C2)C1` [Compound 388], for which the pIC50 was below 5.00.

The molecule `Cc1cc(C2CC3(C2)CN(C(=O)c2ccc4c(c2)OCC4)C3)n(-c2ccccc2C)n1` [Compound 402] had a pIC50 below 5.00.

`Cc1cc(C2CC3(C2)CN(C(=O)c2cc4c(cc2F)CCO4)C3)n(-c2ccccc2C)n1` [Compound 368]: the pIC50 was below 5.00.

On to `Cc1cc(C2CC3(C2)CN(C(=O)c2cccc4c2CCO4)C3)n(-c2ccccc2C)n1` [Compound 403], for which the pIC50 was below 5.00.

For `O=C(c1cc(O)ccc1F)N1CC2(CC(C(=O)N3CCC4(COC4)C3)C2)C1` [Compound 391], the pIC50 is below 5.00.

`O=C(NCC1COC1)C1CC2(C1)CN(C(=O)c1cc(O)ccc1F)C2` [Compound 395] had a pIC50 below 5.00.

With `O=C(c1cc(O)ccc1F)N1CC2(CC(C(=O)N3CCOCC3)C2)C1` [Compound 384], the pIC50 was below 5.00.
